Data published in patent US20220170949A1, “SYSTEM AND METHOD FOR DETECTING THERAPEUTIC AGENTS TO MONITOR ADHERENCE TO A TREATMENT REGIMEN” (ORASURE TECHNOLOGIES, INC., priority 2019, published 2022).
Like-named read-outs stand apart in the source and are kept apart here.

Columns and labels:
[1] = in vivo, po
Text: Antiretroviral concentrations in whole blood or plasma are potentially useful in monitoring adherence to PrEP.

HIV-1 = details: cited from earlier work
[2] = in vivo; cited from earlier work
HIV = details: PBMCs (Anderson 2012); cited from earlier work

Row | SMILES | window of medication usage reflected by TFV detection in whole blood or plasma [1] | HIV-1 risk reduction corresponding to intracellular tenofovir concentrations (HIV-1; 2 doses per week) [%] | HIV-1 risk reduction corresponding to intracellular tenofovir concentrations (HIV-1; 4 doses per week) [%] | HIV-1 risk reduction corresponding to intracellular tenofovir concentrations (HIV-1; 7 doses per week) [%] | intracellular half-life [2] [h] | plasma half-life [2] [h] | intracellular concentration associated with a 90% reduction in HIV acquisition relative to the placebo arm (HIV)
1 | C[C@H](Cn1cnc2c(N)ncnc21)OCP(=O)(O)O [Tenofovir] | one to at least seven days | 76 | 96 | 99 | 150 | 17 | 
2 | CC(Cn1cnc2c(N)ncnc21)OCP(=O)(O)OP(=O)(O)OP(=O)(O)O (stereo in doubt) [tenofovir-diphosphate] |  |  |  |  |  |  | 16 fmol per million peripheral blood mononuclear cells (PBMCs)
